The numbers were not newly measured in patent publication US8753679B2, “Capsule formulation of pirfenidone and pharmaceutically acceptable excipients” (Intermune, Inc., priority 2005, dated 2014), which cites them from elsewhere.

One may read the Tmax as the time from dosing to the highest level. As usually defined, the Cmax is the highest concentration seen after dosing.

The test system of data set [1] is benign prostate hypertrophy. Conditions: oral pirfenidone, older men with clinically advanced BPH.
In the next data set the test system is pulmonary fibrosis. Conditions: after 4 to 6 months on oral pirfenidone.
The subject of data set [2] is human mesenchymal-like cells (including lung fibroblasts, skin fibroblasts, prostate stromal cells, and renal mesangial cells).
The conditions of data set [3]: single oral dose 400 mg as four 100 mg capsules of 100% pirfenidone, 10 healthy adult males, plasma.
For data set [4] the following is noted: oral 400 mg, capsule of 100% pirfenidone.
The conditions of data set [5]: 200 mg single dose on day 1, coated tablet with excipients, 15 patients, serum.

Where two headings read alike, the source gives them in different places.

Turning to `Cc1ccc(=O)n(-c2ccccc2)c1` [Pirfenidone, 5-methyl-1-phenyl-2-(1H)-pyridone], the “response of patients based on objective criteria” value in data set [1] is on record as “functional improvement”. Moreover, in the data set on pulmonary fibrosis, the “lung function (pulmonary function tests, VC, DLCO)” value was “inhibition or blocking of further deterioration in lung function”. Further, in data set [2] (graded concentrations in cell culture media), the “effective levels relative to levels exerting pharmacologically toxic effects on the cells” value is recorded as “ten to twenty times lower”. Moreover, the “effect on excessive cell proliferation induced by cytokine growth factors (TGF-β1, bFGF, PDGF, and EGF)” value in data set [2] (in vitro cell cultures) is on record as “pharmacologic inhibition”. Further, for the setting “after oral administration, drowsiness, gastric nausea or photosensitivity rash”, the observed side effects entry is recorded as “relatively mild”. The serious adverse reactions result (clinical investigations) is recorded as “No serious adverse reactions”. Moreover, in data set [3], the AUC6hr is reported as 20.8±10.0 μg/mL-hr. The values for the T1/2 in data set [3], in data set [4] (ten human volunteers) and in data set [5] were 2.2 ± 0.6 h, 2.87 ± 0.22 h and 3.5 ± 2.2 h, respectively. The Tmax in data set [3] is 0.9 ± 0.3 h; in data set [5], 1.8 ± 1.1 h. The Cmax in data set [3] (gas chromatography) was 6.3 ± 2.5 µg/mL; in data set [5] (HPLC) it was 2.7 ± 0.7 µg/mL. Moreover, the “time at which maximum serum pirfenidone level was reached” value in data set [4] (ten human volunteers (FIG. 3)) was “between one and three hours”. Also, the AUC4hr in data set [5] is 7.3 ± 1.6 µg·h/mL.
